Where two headings read alike, the source gives them in different places.
Columns and labels:
MARK4 [1] = target: T1, MARK4 (Homo sapiens, UniProt Q96L34); assay: Fluorescence quenching binding study (modified Stern-Volmer); settings: excitation 280 nm, 25 °C
T1 construct: inferred from Ni-NTA purification; made in house
T1 sequence (Q96L34 59-368): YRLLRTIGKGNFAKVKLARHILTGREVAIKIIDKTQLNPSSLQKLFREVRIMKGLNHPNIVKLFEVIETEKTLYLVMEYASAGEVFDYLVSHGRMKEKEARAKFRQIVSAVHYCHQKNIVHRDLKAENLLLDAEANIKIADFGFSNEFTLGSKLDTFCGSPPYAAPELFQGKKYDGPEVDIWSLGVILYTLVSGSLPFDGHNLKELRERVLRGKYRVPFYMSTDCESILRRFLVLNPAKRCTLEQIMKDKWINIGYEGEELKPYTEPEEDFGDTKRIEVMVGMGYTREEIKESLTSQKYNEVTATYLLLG

MCF-7 cells [2] = assay: Cytoplasmic superoxide by DHE staining; assay type: cell-based, human; settings: MCF-7, rutin 80 μM, vanillin 120 μM
Description: (§1) Followed by incubation, to measure intracellular ROS, 2-Dichlorofluorescein diacetate (DCFDA) staining was performed. […] Further, cytoplasmic superoxide level was measured by dihydroethidium staining (Fig. 7C). […] In fluorescence imaging, substantial decreases in the extent of DHE fluorescence as compared to control (untreated cells) have been observed (Fig. 7C ). […] Total Reactive oxygen species determination (ROS) content inside the cells was determined using the DCFDA reagent. This assay measures various ROS such as H2O2 and hydroxyl radicals. […] After that cells were washed twice with PBS, pH7.4, trypsinized and collected by centrifugation. Finally cells were resuspended in 300 μl of PBS and fluorescence was measured at Jasco spectroflourimeter (FP-6200) using a 5 mm quartz cuvette. The excitation and emission filters were set at 485/500–550 nm respectively. Similarly with some modifications, cytosolic superoxide levels were determined using dihydroxyethidium staining. Briefly, cells were grown on coverslips to 70–80% confluency and replaced the complete media with reduced serum media for overnight. […] Following DHE staining, DAPI is used to satin nuclei of the cells as described earlier. Fluorescence images were taken on Nikon-EclipseTS100 microscope.

[3] = tested on: phosphorylation of tau in SH-SY5Y cells; assay: Tau-phosphorylation assay by flow cytometry (anti-tau pSer262); assay type: cell-based, human; settings: 80–120 μM, 24 hrs
MCF-7 cells [4] = assay: MTT cell proliferation assay, MCF-7; assay type: cell-based; settings: Homo sapiens, MCF7; MCF-7, MTT, 48 h; read-out: IC50 (cell viability)
Description: (§2) Briefly, breast cancer cells (MCF-7), human cervical cancer cells (HeLa), human neuroblastoma (SH-SY5Y) cells and human embryonic kidney cells (HEK293T) were seeded in a 96 well plates at a concentration of 10 × 10^3 viable cells per well. […] After 48 h of treatment, both medium and inhibitor were removed from the cells, washed twice with phosphate buffer saline (PBS) and then 20 µl MTT (from 5 mg/ml stock) and 100 µl DMEM was loaded to each well followed by 4–5 hours incubation in a CO2 incubator at 37 °C. Finally, the residual MTT medium was removed carefully and dissolves the crystals of formazan by adding 100 µl DMSO in each well. The micro-titer plates were then agitated for 15–20 minutes on an orbital plate shaker and then absorbance at 570 nm was determined on a titerplate reader (BioRad). The absorbance value so obtained was converted into percentage viability in comparison to the control cells (untreated cells/cells treated with media only). For cell proliferation studies doxorubicin has been taken as positive control.

MCF-7 cells [5] = assay: Annexin-V apoptosis assay by flow cytometry; assay type: cell-based, human; settings: MCF-7, IC50 concentration (rutin 80 μM, vanillin 120 μM), 48 h
Excerpt: Apoptosis plays a central role in the progress and pathophysiology of a wide variety of diseases. However, due to impairment of apoptotic signal transmission most of the cancerous cells evade apoptosis. […] Annexin- V staining was used to study the apoptosis. […] Cells were washed twice with phosphate-buffered saline (PBS) and stained with FITC labeled Annexin- V. Annexin- Vpositive cells were examined by flow cytometry. […] Annexin-V staining was used to determine the cell apoptosis, [73]. […] After treatment, nearly 2 × 10^6 cells were trypsinized and washed two times with 5 ml of PBS by centrifuging at 1800 rpm for 4 min. FITC-Annexin-V staining was done by using FITC-Annexin-V kit according to the manufacturer’s instructions (BD-Biosciences, USA). 10,000 events for each sample were analyzed by flow cytometry BD FACS Canto and data analysis was performed with help of flowJo software.

MCF-7 cells [6] = assay: Intracellular ROS by DCFDA staining; assay type: cell-based, human; settings: MCF-7, 20–120 μM, 12 h
Description: as §1

MARK4 [7] = target: T1, MARK4; assay: ATPase inhibition assay ([γ-32P]ATP hydrolysis, TLC); assay type: biochemical
HEK293 cells = assay: MTT cell proliferation assay, HEK293; assay type: cell-based, human; settings: 48 h, at a dose even higher than 200 μM
Description: as §2

SH-SY5Y cells = assay: MTT cell proliferation assay, SH-SY5Y; assay type: cell-based, human; settings: 48 h, at a dose even higher than 200 μM
Description: as §2

MARK4 [8] = target: T1, MARK4; assay: Isothermal titration calorimetry; assay type: binding; settings: ITC, two-site model; for K a1 (association constant): site 1, 25 °C; for K a2 (association constant): site 2, 25 °C
HeLa cells = assay: MTT cell proliferation assay, HeLa; assay type: cell-based; settings: Homo sapiens, 48 h, read-out: IC50 (cell viability)
Description: as §2

[9] = site 1, read-out: K D1 (dissociation constant)
[10] = site 2, read-out: K D2 (dissociation constant)

SMILES	Binding affinity (K a) (MARK4 [1]) [M⁻¹]	Cytoplasmic superoxide levels (DHE fluorescence) (MCF-7 cells [2])	Phosphorylation of tau [3]	IC50 (MCF-7 cells [4]) [µM]	Increase in apoptosis as compared to the control cells (MCF-7 cells [5]) [%]	DCF fluorescence (intracellular ROS) (MCF-7 cells [6])	inhibition at 40 µM (MARK4 [7]) [%]	Effect on cell viability (HEK293 cells)	Effect on cell viability (SH-SY5Y cells)	K a1 (association constant) (MARK4 [8])	Kd (MARK4 [8]; [9]) [µM]	K a2 (association constant) (MARK4 [8])	Kd (MARK4 [8]; [10]) [µM]	IC50 (HeLa cells) [µM]	other results
COc1ccc([C@@H]2CC(=O)c3c(O)cc(O[C@@H]4O[C@H](CO[C@@H]5O[C@@H](C)[C@H](O)[C@@H](O)[C@H]5O)[C@@H](O)[C@H](O)[C@H]4O)cc3O2)cc1O [Hesperidin]	112	–	–	–	–	–	–	–	–	–	–	–	–	–	–
C[C@@H]1O[C@@H](OC[C@H]2O[C@@H](Oc3c(-c4ccc(O)c(O)c4)oc4cc(O)cc(O)c4c3=O)[C@H](O)[C@@H](O)[C@@H]2O)[C@H](O)[C@H](O)[C@H]1O [Rutin]	287000	decreases cytoplasmic superoxide levels	inhibit the phosphorylation of tau	80	12	dose-dependent decrease in DCF fluorescence	~50	did not inhibit the viability	did not inhibit the viability	K a1 = 2.04 × 10^5 ± 0.15 × 10^5 M^−1	4.9	K a2 = 1.72 × 10^6 ± 0.31 × 10^6 M^−1	0.581	> 200	ATPase enzyme activity in initial screening (MARK4 [7]; initial screening, compound 30 µM (Fig. S5)): significant decrease in the enzyme activity; ΔH 1 (enthalpy change) (MARK4 [8]; site 1): ΔH 1 = −4.61 × 10^6 cal/mol; ΔS 1 (MARK4 [8]; site 1): ΔS 1 = −1.52 × 10^4 cal/mol/deg; ΔH 2 (enthalpy change) (MARK4 [8]; site 2): ΔH 2 = −1.0 × 10^4 cal/mol; ΔS 2 (MARK4 [8]; site 2): ΔS 2 = −4.74 cal/mol/deg
O=C(O)c1cc(O)c(O)c(O)c1 [Gallic acid]	7.6	–	–	–	–	–	–	–	–	–	–	–	–	–	–
COc1cccc2c1C(=O)c1c(O)c3c(c(O)c1C2=O)C[C@@](O)(C(=O)CO)C[C@@H]3O[C@H]1C[C@H](N)[C@H](O)[C@H](C)O1 [doxorubicin, reference compound]	–	–	–	0.12	–	–	–	–	–	–	–	–	–	–	–
COc1cc(/C=C/C(=O)O)ccc1O [Ferulic acid]	13000	–	–	–	–	–	–	–	–	–	–	–	–	–	–
COc1cc(C=O)ccc1O [Vanillin]	16500	decreases cytoplasmic superoxide levels	inhibit the phosphorylation of tau	120	9	dose-dependent decrease in DCF fluorescence	~50	did not inhibit the viability	did not inhibit the viability	K a1 = 8.43 × 10^3 ± 0.5 × 10^3 M^−1	119	K a2 = 1.45 × 10^5 ± 0.29 × 10^5 M^−1	6.9	> 200	–
